We go through 1 compound from BindingDB's records for doi:10.1074/jbc.M113.479303 (Wageningen University, 2013).

Assay in all cases: Substrate Binding Assay
Common to all, as to conditions: pH 8

Experiment [1] deals with T1, Probable salicylate monooxygenase (Rhodococcus jostii (strain RHA1), UniProt Q0SFK6).
T1 sequence (Q0SFK6 whole entry): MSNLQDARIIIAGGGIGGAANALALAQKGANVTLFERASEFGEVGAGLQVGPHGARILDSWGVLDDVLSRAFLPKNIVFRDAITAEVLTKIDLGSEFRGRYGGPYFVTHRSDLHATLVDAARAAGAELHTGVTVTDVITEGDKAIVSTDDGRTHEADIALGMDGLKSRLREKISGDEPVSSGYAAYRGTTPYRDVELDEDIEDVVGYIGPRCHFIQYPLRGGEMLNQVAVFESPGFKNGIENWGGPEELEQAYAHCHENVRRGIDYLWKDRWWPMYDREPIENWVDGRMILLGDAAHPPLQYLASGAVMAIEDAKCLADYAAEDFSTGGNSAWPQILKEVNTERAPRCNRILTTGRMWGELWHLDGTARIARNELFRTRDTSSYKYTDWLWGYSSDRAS
The method, then: (§1) The interaction of 3HB6H (25 uM) with substrate analogs was studied in 50 mM Tris-SO4 (pH 8.0). Dissociation constants (Kd) of enzyme-substrate complexes were determined from flavin absorption difference spectra essentially as described elsewhere [Montersino et al., Biochim. Biophys. Acta, 1824:433-442].

In experiment [2] the target is Probable salicylate monooxygenase [H213A] (Rhodococcus jostii (strain RHA1), UniProt Q0SFK6, H213A). On the procedure: as §1
In experiment [3] the target is Probable salicylate monooxygenase [Y105F] (Rhodococcus jostii (strain RHA1), UniProt Q0SFK6, Y105F). On the procedure: as §1

Structures are written as SMILES.

Usually Kd stands for the concentration at which binding is half-saturated. The low end stands for higher affinity, the high end for lower affinity. As for `O=C(O)c1cccc(O)c1`, the Kd in experiment [1] came to 48 µM; in experiment [2] it was 61 µM; in experiment [3], 644 µM.
